Test results: patent US10287295B2, “TGF-β inhibitors” (Rigel Pharmaceuticals, Inc., priority 2015, dated 2019)

Experiments:
HIS-TGF-βR1 T204D = HIS-TGF-βR1 T204D (Homo sapiens (Human), UniProt P36897, T204D); test: HTRF probe displacement assay, HIS-TGF-βR1 T204D; settings: read-out: TGFbr1 IC50, 1 nM HIS-TGF-βR1 T204D, 1 hour at room temperature
[1] = system: TGF-β signaling (TGF-β pSMAD, MPC-11); test: AlphaScreen SureFire SMAD3 (p-Ser423/425) assay, inhibition of TGF-β signaling; assay type: cell-based; settings: Mus musculus, MPC-11, inhibition of TGF-β signaling, p-SMAD3 readout
[2] = system: GDF8 signaling (GDF pSMAD, MPC11); test: AlphaScreen SureFire SMAD3 (p-Ser423/425) assay, inhibition of GDF8 signaling; assay type: cell-based; settings: Mus musculus, MPC-11, inhibition of GDF8 signaling, p-SMAD3 readout

Chain of HIS-TGF-βR1 T204D (P36897 34-503 T204D): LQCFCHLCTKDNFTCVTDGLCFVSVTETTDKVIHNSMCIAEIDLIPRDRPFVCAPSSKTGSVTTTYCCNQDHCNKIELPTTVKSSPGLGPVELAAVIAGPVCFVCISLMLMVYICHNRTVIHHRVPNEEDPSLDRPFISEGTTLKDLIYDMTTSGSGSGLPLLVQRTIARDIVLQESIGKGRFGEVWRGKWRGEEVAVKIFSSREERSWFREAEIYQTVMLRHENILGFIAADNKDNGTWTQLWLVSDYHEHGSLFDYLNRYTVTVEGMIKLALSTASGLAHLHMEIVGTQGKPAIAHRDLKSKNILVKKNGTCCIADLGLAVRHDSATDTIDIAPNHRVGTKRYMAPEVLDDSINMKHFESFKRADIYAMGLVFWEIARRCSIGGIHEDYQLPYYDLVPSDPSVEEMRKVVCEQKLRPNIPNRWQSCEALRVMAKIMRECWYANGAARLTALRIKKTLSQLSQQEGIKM

Compound	IC50 (HIS-TGF-βR1 T204D) [nM]	IC50 [1] [nM]	IC50 [2] [nM]
NC(=O)c1cnc2ccc(-c3c(-c4ccc(F)c(Cl)c4)ncn3[C@H]3C[C@@H](O)C3)nn12 [140′, 6-(4-(3-chloro-4-fluorophenyl)-1-((1s,3s)-3-hydroxycyclobutyl)-1H-imidazol-5-yl)imidazo[1,2-b]pyridazine-3-carboxamide]	2.8		
Cc1nc(-c2ccc(F)cc2)c(-c2ccc3ncc(C#N)n3c2)n1CC(F)F [272A′, 6-(1-(2,2-difluoroethyl)-4-(4-fluorophenyl)-2-methyl-1H-imidazol-5-yl)imidazo[1,2-a]pyridine-3-carbonitrile]	251		
Clc1cccc(-c2nc[nH]c2-c2ccc3nccn3c2)c1 [Compound 26, 6-(4-(3-Chlorophenyl)-1H-imidazol-5-yl)imidazo[1,2-a]pyridine]		260	220
CCc1nc(-c2ccc(F)c(C)c2)c(-c2ccc3ncsc3c2)[nH]1 [Compound 109, 6-(2-Ethyl-4-(4-fluoro-3-methylphenyl)-1H-imidazol-5-yl)benzo[d]thiazole]		870	150
Fc1ccc(-c2nc[nH]c2-c2ccc3cn[nH]c3c2)cc1F [Compound 32, 6-(4-(3,4-Difluorophenyl)-1H-imidazol-5-yl)-1H-indazole]		140	50
